Experimental data: patent US5925369A, “Bis alkanoyl esters of carnitine having bactericidal, fungicidal and antiprotozoal activity” (priority 1996, dated 1999)
Like-named read-outs stand apart in the source and are kept apart here.

Key:
[1] = test system: Proteus sp.; test: MIC on Gram negative bacteria; assay type: cell-based; conditions: Proteus sp. SG 9 II, clinical isolate; read-out: Minimal Inhibitory Concentration
Protocol: (§1) Bacterial suspensions are prepared from an overnight culture in Mueller-Hinton broth and are adjusted, in the same medium, to a final concentration of 5.0×10^4 cells/ml in each well of a 96-well microtiter plate. Substance dilutions (0.3 log) in Mueller-Hinton broth are added to the suspensions in order to have a range of final concentrations from 0.19 to 100 mcg/ml.
(§2) Microtiters are then incubated at 37° C. for 18 hours. (See L. D. THRUPP, Susceptibility testing of antibiotics in liquid media, in: Antibiotics in laboratory medicine. V. LORIAN Ed., II edition, 4, 93-150, Williams & Wilkins, Baltimora, Md. 21202 U.S.A.).

[2] = test system: Enterobacter cloacae; test: MIC on Gram negative bacteria; assay type: cell-based; conditions: Enterobacter cloacae SG 3 II, clinical isolate; read-out: Minimal Inhibitory Concentration
Protocol: as §1, §2

[3] = test system: Klebsiella pneumoniae; test: MIC on Gram negative bacteria; assay type: cell-based; conditions: Klebsiella pneumoniae SG 5 II, clinical isolate; read-out: Minimal Inhibitory Concentration
Protocol: as §1, §2

[4] = test system: K. oxytoca; test: MIC on Gram negative bacteria; assay type: cell-based; conditions: Klebsiella oxytoca; K. oxytoca 552, lab collection; read-out: Minimal Inhibitory Concentration
Protocol: as §1, §2

[5] = test system: Staphylococcus aureus LC1; test: In vivo antiinfective effect on topical mixed infection in mice; parameters: species or system BALB/c mice; conditions: for S. aureus: Not cured animals (mean CFU/mouse) / S. aureus: Cured animals: 50 mg/day of 1% gel, topical, 5 days; for S. aureus: Cured animals: 5 animals/group; for activity on S. aureus, ST 1226 and ST 1103 compared: mixed topical infection
Protocol: (§3) Male inbred BALB/c mice (C. RIVER), aged 6 weeks were used (5 animals per group).
(§4) The animals were topically infected with pathogenic strains of Tricophyton (Tricophyton quinckeanum NCPF 309) and Staphylococcus (Staphylococcus aureus LC1).
(§5) Suspensions of fungal microaleuriospores and bacteria were adjusted to a final concentration of 5.0×10^7 and 1.0×10^7 cells/ml, respectively. Volumes of 0.2 ml of each suspension were applied onto the upper posterior zone of the animals, which had previously been shaved and gently abraded with a scalpel blade until "glistening". Treatment started 30 hours after the inocula by administering 50 mg of each substance in a gel form (1% test article) on the infected skin once a day for 5 consecutive days. Two days following the last treatment, animals were sacrificed and infected tissue samples were collected. Following homogenization and appropriate dilution in medium, tissue samples were plated (in Mycobiotic agar and Mannitol Salt agar for fungi and bacteria, respectively) to selectively assess the growth of the pathogens. Fungal growth is evaluated by means of an arbitrary scale, while bacterial growth is evaluated by determining the CFUs (Colony Forming Units).

[6] = test system: Tricophyton quinckeanum NCPF 309; test: as above; parameters: species or system BALB/c mice; key to T. quinckeanum: Not cured animals (fungal growth): +++: confluent fungal growth (from a 1ml skin homogenate); ++: semiconfluent fungal growth (from a 1ml skin homogenate); +: moderate fungal growth (from a 1ml skin homogenate); conditions: for T. quinckeanum: Cured animals: 5 animals/group
Protocol: as §3, §4, §5

[7] = test system: S. aureus (Staph. aureus); test: MIC on Gram positive bacteria; assay type: cell-based; conditions: Staphylococcus aureus, read-out: Minimal Inhibitory Concentration
Protocol: as §1, §2

[8] = test system: B. pumilus; test: MIC on Gram positive bacteria; assay type: cell-based; conditions: Bacillus pumilus; B. pumilus CN 607, lab collection; read-out: Minimal Inhibitory Concentration
Protocol: as §1, §2

[9] = test system: Staph. sp.; test: MIC on Gram positive bacteria; assay type: cell-based; conditions: Staph. sp. SG1 II, clinical isolate; read-out: Minimal Inhibitory Concentration
Protocol: as §1, §2

[10] = test system: Micrococcus sp.; test: MIC on Gram positive bacteria; assay type: cell-based; conditions: Micrococcus sp. IDI 3502, clinical isolate (pustule, scalp); read-out: Minimal Inhibitory Concentration
Protocol: as §1, §2

[11] = test system: Staph. capitis; test: MIC on Gram positive bacteria; assay type: cell-based; conditions: Staphylococcus capitis; Staph. capitis IDI 3502, clinical isolate (pustule, scalp); read-out: Minimal Inhibitory Concentration
Protocol: as §1, §2

[12] = test system: Strept. sp.; test: MIC on Gram positive bacteria; assay type: cell-based; conditions: Strept. sp. SG 7 II, clinical isolate; read-out: Minimal Inhibitory Concentration
Protocol: as §1, §2

[13] = test system: S. faecalis (Strept. faecalis); test: MIC on Gram positive bacteria; assay type: cell-based; conditions: Enterococcus faecalis, read-out: Minimal Inhibitory Concentration
Protocol: as §1, §2

[14] = test system: Staph. warneri; test: MIC on Gram positive bacteria; assay type: cell-based; conditions: Staphylococcus warneri; Staph. warneri IDI 3482, clinical isolate (suppurative wound); read-out: Minimal Inhibitory Concentration
Protocol: as §1, §2

[15] = test system: Staph. epider.; test: MIC on Gram positive bacteria; assay type: cell-based; conditions: Staph. epider. IDI 3482, clinical isolate (suppurative wound); read-out: Minimal Inhibitory Concentration
Protocol: as §1, §2

[16] = test system: Gram negative bacteria; test: MIC on Gram negative bacteria (all strains); assay type: cell-based; conditions: 5 strains
Protocol: as §1, §2

[17] = test system: anaerobic bacteria; test: MIC on anaerobic bacteria (all strains); assay type: cell-based; conditions: for MIC: 3 strains
Protocol: Bacteria from cultures in […].) medium on Petri dishes, grown overnight at 35° C. in an anaerobic jar, were resuspended in Brucella broth. The suspensions were adjusted to 1.0×10^8 cells/ml and distributed (0.2 ml/well) in microtiter plates (96-well U-bottomed plate). At the same time, 0.3 log dilutions of the substances are mixed with W. C. agar medium in four-sectioned Petri dishes, which are then seeded with the bacterial suspension by means of a multipoint inoculator (1.0×10^5 cells/spot). The plates are then incubated at 35° C. for 48 hours in an anaerobic jar) (See J. E. ROSENBLATT, Antimicrobial susceptibility testing of anaerobes, in Antibiotics in laboratory medicine. V. LORIAN Ed., II edition, 6, 159-180, Williams & Wilkins, Baltimora, Md 21202 U.S.A.).

[18] = test system: dermatophytes; test: MIC on dermatophytes (all strains); assay type: cell-based; conditions: for MIC: 22 strains
Protocol: Mycelium fragments, micro and macroaleuriospores are harvested from 7-day fungal cultures grown at 30 ° C. in Potato Dextrose agar by washing them with Sabouraud broth and 0.5% Tween 80. After a coarse filtration and washing, the fungal suspension is resuspended in Yeast Nitrogen Base supplemented with asparagine and glucose (YNBs) to yield a final concentration of 1.0×10^5 infective units/ml in a microtiter plate. The substances (0.3 log dilutions in Y.N.B.s.) are added to the fungal suspensions in order to generate a range of final concentrations from 0.19 to 100 mcg/ml. The microtiter plates are then incubated at 30° C. for 96-120 hours.

[19] = 50 mg/day of 1% gel, topical, 5 days
[20] = S. aureus 306 MR, lab collection
[21] = Staph. aureus IDI 3530, clinical isolate (ulcer)
[22] = Staph. aureus IDI 3593, clinical isolate (ulcer)
[23] = Staph. aureus SG II, clinical isolate
[24] = S. faecalis 501, lab collection
[25] = S. faecalis 509, lab collection
[26] = Strept. faecalis IDI 3580, clinical isolate (ulcer)

SMILES: CCCCCCCCCCCOC(=O)C[C@H](C[N+](C)(C)C)OC(=O)CC(C)C [ST 1103, isovaleryl L-carnitine undecyl ester methanesulfonate, reference compound]
- MIC [1]: 50 µg/mL
- MIC [2]: 25 µg/mL
- MIC [3]: 50 µg/mL
- MIC [4]: 12.5 µg/mL
- S. aureus: Not cured animals (mean CFU/mouse) [5]: 40 CFU/mouse
- S. aureus: Cured animals [5]: 80%
- activity on S. aureus, ST 1226 and ST 1103 compared [5]: identical activity on S. aureus
- T. quinckeanum: Not cured animals (fungal growth) [6, 19]: +
- T. quinckeanum: Cured animals [6, 19]: 80%
- MIC ([7]; S. aureus 303, lab collection): 6.25 µg/mL
- MIC [7, 20]: 6.25 µg/mL
- MIC [7, 21]: 3.12 µg/mL
- MIC [7, 22]: 3.12 µg/mL
- MIC [7, 23]: 3.12 µg/mL
- MIC [8]: 3.12 µg/mL
- MIC [9]: 6.25 µg/mL
- MIC [10]: 3.12 µg/mL
- MIC [11]: 3.12 µg/mL
- MIC [12]: 3.12 µg/mL
- MIC [13, 24]: 3.12 µg/mL
- MIC [13, 25]: 1.56 µg/mL
- MIC [13, 26]: 6.25 µg/mL
- MIC [14]: 6.25 µg/mL
- MIC [15]: 1.56 µg/mL
- MIC ([16]; clinical isolates): 35 µg/mL
- MIC ([16]; lab collection): 27.5 µg/mL
- MIC [17]: 11.4 µg/mL
- MIC [18]: 13.5 µg/mL

SMILES: CCCCCCCCCCC(=O)O[C@H](CC(=O)OCc1ccc(COC(=O)C[C@H](C[N+](C)(C)C)OC(=O)CCCCCCCCCC)cc1)C[N+](C)(C)C [ST 1226, bis(undecanoyl L-carnitine chloride)p-xylilene diester]
- MIC [1]: 50 µg/mL
- MIC [2]: 12.5 µg/mL
- MIC [3]: 50 µg/mL
- MIC [4]: 25 µg/mL
- S. aureus: Not cured animals (mean CFU/mouse) [5]: 50 CFU/mouse
- S. aureus: Cured animals [5]: 80%
- activity on S. aureus, ST 1226 and ST 1103 compared [5]: identical activity on S. aureus
- T. quinckeanum: Cured animals [6, 19]: 100%
- antifungal activity compared with ST 1103 ([6]; mixed topical infection): greater antinfungal activity than ST 1103
- MIC ([7]; S. aureus 303, lab collection): 3.12 µg/mL
- MIC [7, 20]: 3.12 µg/mL
- MIC [7, 21]: 3.12 µg/mL
- MIC [7, 22]: 3.12 µg/mL
- MIC [7, 23]: 3.12 µg/mL
- MIC [8]: 1.56 µg/mL
- MIC [9]: 3.12 µg/mL
- MIC [10]: 1.56 µg/mL
- MIC [11]: 1.56 µg/mL
- MIC [12]: 3.12 µg/mL
- MIC [13, 24]: 3.12 µg/mL
- MIC [13, 25]: 1.56 µg/mL
- MIC [13, 26]: 6.25 µg/mL
- MIC [14]: 3.12 µg/mL
- MIC [15]: 3.12 µg/mL
- MIC ([16]; clinical isolates): 35 µg/mL
- MIC ([16]; lab collection): 26.2 µg/mL
- mean MIC value compared with ST 1103 [17]: smaller than ST 1103
- MIC [17]: 8.33 µg/mL
- activity compared with ST 1103 [18]: higher activity than ST 1103
- MIC [18]: 3.19 µg/mL
